Source: patent US20030017519A1, “Electrochemical enzyme assay” (priority 1993, published 2003)

Experiment: Electrochemical characteristics of β-galactosidase labeled substrates and their cleaved labels
Assay type: physicochemical
Conditions: for Reversible?: electrochemical reversibility, per oxidation potential listed; for Elec. Active?: scanned in the potential range −0.6 V to +1.0 V vs. Ag/AgCl
Text: When cleaved from the substrate, the label should be electrochemically active in this same potential range.

Q: With COc1ccc(O[C@@H]2O[C@H](CO)[C@H](O)[C@H](O)[C@H]2O)c2ccccc12 as the compound, how does the “Reversible?” value read?
A: quasi, no

Q: What about the “Elec. Active?” value of the same compound?
A: yes

Q: With O=c1ccc2nc3ccc(O[C@@H]4O[C@H](CO)[C@H](O)[C@H](O)[C@H]4O)cc3oc-2c1 [resorufin-β-D-galactopyranoside] as the compound, how does the “electrochemical activity at the measurement potential” value (before and after cleavage) read?
A: electrochemically active at the measurement potential before and after cleavage

Q: What about the “Reversible?” value of the same compound?
A: Yes

Q: And the “Elec. Active?” value?
A: yes

Q: What about the “Eox vs. Ag/AGCL” value of the same compound?
A: −0.100 V

Q: Which “Reversible?” value does the source give for OCCOCCOCCOc1ccc(O)c2ccccc12 [4-(1,4,7, 10-tetraoxadecyl)-1-naphthol] here?
A: no

Q: And the “Elec. Active?” value?
A: yes

Q: For COc1ccc(O)c2ccccc12 [4-methoxy-1-naphthol], which “Reversible?” value is on record?
A: quasi, no

Q: What about the “Elec. Active?” value of the same compound?
A: yes

Q: What does the source list for OCCOCCOCCOc1ccc(O[C@@H]2O[C@H](CO)[C@H](O)[C@H](O)[C@H]2O)c2ccccc12?
A: Reversible?: no, no; Elec. Active?: yes

Q: Which results are given for O=c1ccc2nc3ccc(O)cc3oc-2c1 [resorufin]?
A: Reversible?: yes; Elec. Active?: yes; Eox vs. Ag/AGCL: −0.100 V

Q: Which “Elec. Active?” value does the source give for Nc1ccc(O[C@@H]2O[C@H](CO)[C@H](O)[C@H](O)[C@H]2O)cc1 [p-aminophenyl-β-D-galactyopyranoside, p-aminophenyl-β-D-galactopyranoside] here?
A: no
